The values that follow come from patent publication US11492347B2 (ENYO PHARMA, priority 2018, dated 2022).

In one assay the test system is UXF 1138. In words: Cytotoxicity, propidium iodide based monolayer assay. Particulars: 96 h; UXF 1138 uterine sarcoma, four days of treatment, T/C=50%; read-out: Absolute IC50. It counts as cell-based. As for the experimental part: The cytotoxicity was tested for compounds of the invention on five different cell-lines, namely LXFL 1121, MAXF 401, MMXF L-636, PRXF PC-3M and UXF 1138 which are respectively lung large cell carcinoma, breast adeno carcinoma, multiple myeloma, prostate adeno carcinoma and uterine sarcoma.
A working stock solution of the test compounds was prepared in DMSO at a concentration of 33 mM or 8.25 mM, and small aliquots were stored at −20° C. On each day of an experiment, a frozen aliquot of the working stock solution was thawed and stored at room temperature prior to and during treatment.
All liquid handling steps were performed using the Tecan Freedom EVO 200 platform. First, serial 2-fold dilutions of the 33 mM DMSO working stock solution were done in DMSO. The DMSO dilutions were then diluted 1:22 into cell culture medium in an intermediate dilution plate. Finally, 10 μl taken from the intermediate dilution plate were transferred to 140 μl/well of the final assay plate. Thus, the DMSO serial dilutions were diluted 1:330 with cell culture medium, and the DMSO concentration in the assay was 0.3% v/v.
Cell lines were routinely passaged once or twice weekly and maintained in culture for up to 20 passages. Most cell lines were grown at 37° C. in a humidified atmosphere with 5% CO2 in RPMI 1640 medium (25 mM HEPES, with L-glutamine, #FG1385, Biochrom, Berlin, Germany) supplemented with 10% (v/v) fetal calf serum (Sigma, Taufkirchen, Germany) and 0.05 mg/mL gentamicin (Life Technologies, Karlsruhe, Germany).
A modified propidium iodide (PI) based monolayer assay was used to assess the anti-cancer activity of the compounds. Briefly, cells were harvested from exponential phase cultures, counted and plated in 96 well flat-bottom microtiter plates at a cell density of 4,000 to 40,000 cells/well dependent on the cell line's growth rate. The individual seeding density for each cell line ensure exponential growth conditions over the whole or at least the bigger part of the treatment period. After a 24 h recovery period, to allow the cells to resume exponential growth, 10 μl of culture medium (6 control wells/cell line/plate) or of culture medium with test compounds were added. Compounds were applied at ten concentrations in 2-fold increments in duplicates up to 25 μM or 100 μM and treatment continued for four days. After four days of treatment, cells were next washed with 200 μl PBS to remove dead cells and debris, then 200 μl of a solution containing 7 μg/ml propidium iodide (PI) and 0.1% (v/v) Triton X-100 was added. After an incubation period of 1-2 hours at room temperature, fluorescence (FU) was measured using the Enspire Multimode Plate Reader (excitation λ=530 nm, emission k=620 nm) to quantify the amount of attached viable cells.
Drug effects were expressed in terms of the percentage of the fluorescence signal, obtained by comparison of the mean signal in the treated wells with the mean signal of the untreated controls (expressed by the test-versus-control value, T/C−value [%]):
[formula] IC values reported reflect the concentration of the test compound that achieves T/C=50%. Calculation was done by 4 parameter non-linear curve fit.

In assay [1] the target is T1, CISD3 Gene Product (Miner2) (Homo sapiens, UniProt P0C7P0).
T1 sequence (P0C7P0 15-127): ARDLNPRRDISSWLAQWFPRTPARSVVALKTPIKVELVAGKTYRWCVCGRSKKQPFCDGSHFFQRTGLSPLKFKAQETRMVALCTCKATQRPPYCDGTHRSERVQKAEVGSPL
In words: Stability of Fe-S cluster binding of purified NEET protein (absorbance 458 nm). It counts as biochemical. Particulars: for Residual cluster bound at end of experiment (Percentage Absorbance 458 nm at time zero): CISD3 gene product 20 μM, pH 6, at 180 minutes, vehicle control 11%; for Residual cluster bound at end of experiment (Percentage Absorbance 458 nm at time zero) / Time (in minutes) to achieve 50% loss of bound cluster (Absorbance 458 nm): compound 60 μM; for Time (in minutes) to achieve 50% loss of bound cluster (Absorbance 458 nm): Miner2 20 μM, pH 6, 37° C., run time 180 minutes, vehicle control 60; for Stabiliser or destabiliser of Fe-S cluster binding by CISD3 Gene Product (Miner2): time to 50% cluster loss changed by more than 25% compared to the Control sample, at the concentrations tested. The method, boiled down:
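Purified NEET protein (20 μM) with compound (60 μM, 1:3 molar ratio) in 100 mM Bis-Tris pH 6, 100 mM NaCl, 66 μM DMSO at 37 °C; 458 nm absorbance decay read every 5 min for 500 min (NAF-1) or 180 min (mitoNEET, Miner2). Outputs: time to 50% absorbance loss and residual % bound cluster, versus protein alone.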

Consider `CC1(C)Cc2c(sc(NC(=O)c3ccc(N4CCOCC4)cc3)c2C(=O)O)C(C)(C)C1` [Compound #36, 5,5,7,7-Tetramethyl-2-[(4-morpholinobenzoyl)amino]-4,6-dihydrobenzothiophene-3-carboxylic acid], for which the IC50 in the assay with UXF 1138 is 988 nM. For the same compound, in assay [1], the “Residual cluster bound at end of experiment (Percentage Absorbance 458 nm at time zero)” value was 39% (11%), the “Time (in minutes) to achieve 50% loss of bound cluster (Absorbance 458 nm)” value is given as 80 (60) minutes and the “Stabiliser or destabiliser of Fe-S cluster binding by CISD3 Gene Product (Miner2)” value (“Stabiliser or destabiliser” below) is reported as “Stabilisers”.

Consider `CC1(C)CCc2sc(NC(=O)c3ccccc3)c(C(=O)O)c21` [Compound #37, 2-Benzamido-4,4-dimethyl-5,6-dihydrocyclopenta[b]thiophene-3-carboxylic acid], for which, in the assay with UXF 1138, the IC50 was 9420 nM. Also, in assay [1], the “Residual cluster bound at end of experiment (Percentage Absorbance 458 nm at time zero)” value is 37% (11%), the “Time (in minutes) to achieve 50% loss of bound cluster (Absorbance 458 nm)” value is recorded as 75 (60) minutes and the “Stabiliser or destabiliser” value was “Stabilisers”.

On to `COC1CN(c2ccc(C(=O)Nc3sc4c(c3C(=O)O)CC(C)(C)CC4(C)C)cc2)C1` [Compound #58, 2-[[4-(3-Methoxyazetidin-1-yl)benzoyl]amino]-5,5,7,7-tetramethyl-4,6-dihydrobenzothiophene-3-carboxylic acid], for which the IC50 with UXF 1138 was 819 nM. Besides, in assay [1], the “Residual cluster bound at end of experiment (Percentage Absorbance 458 nm at time zero)” value is on record as 44% (11%), the “Time (in minutes) to achieve 50% loss of bound cluster (Absorbance 458 nm)” value is recorded as 125 (60) minutes and the “Stabiliser or destabiliser” value is “Stabilisers”.

As a reminder, the IC50 is the concentration needed to halve the response being measured.
